Laboratory results taken from PubChem BioAssay (NCI).
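Where inhibition never reached the appropriate level, the endpoint shown equals the highest concentration tested. Otherwise, values were interpolated linearly from a five-concentration, 48-hour dose response in 96-well plates. TGI: total growth inhibition.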

Experiments:
Experiment in all cases: NCI tumour cell line growth inhibition, 48 h
SK-MEL-5 melanoma = test system: SK-MEL-5 melanoma
HL-60(TB) leukemia = test system: HL-60(TB) leukemia
SF-539 CNS = test system: SF-539 CNS
KM12 colon = test system: KM12 colon
HS 578T breast = test system: HS 578T breast
NCI-H23 lung = test system: NCI-H23 lung
SK-MEL-28 melanoma = test system: SK-MEL-28 melanoma
K-562 leukemia = test system: K-562 leukemia
MOLT-4 leukemia = test system: MOLT-4 leukemia
COLO 205 colon = test system: COLO 205 colon
SN12C renal = test system: SN12C renal
HCT-15 colon = test system: HCT-15 colon
OVCAR-8 ovarian = test system: OVCAR-8 ovarian
T-47D breast = test system: T-47D breast
BT-549 breast = test system: BT-549 breast
U251 CNS = test system: U251 CNS
SF-295 CNS = test system: SF-295 CNS
OVCAR-4 ovarian = test system: OVCAR-4 ovarian
ACHN renal = test system: ACHN renal
PC-3 prostate = test system: PC-3 prostate
MDA-MB-435 = test system: MDA-MB-435
MDA-N = test system: MDA-N
M14 melanoma = test system: M14 melanoma
RPMI-8226 leukemia = test system: RPMI-8226 leukemia
SR leukemia = test system: SR leukemia
NCI-H226 lung = test system: NCI-H226 lung
NCI-H460 lung = test system: NCI-H460 lung
786-0 renal = test system: 786-0 renal
RXF 393 renal = test system: RXF 393 renal
OVCAR-3 ovarian = test system: OVCAR-3 ovarian
HOP-62 NSCLC = test system: HOP-62 NSCLC
HCT-116 colon = test system: HCT-116 colon
DU-145 prostate = test system: DU-145 prostate
SK-OV-3 ovarian = test system: SK-OV-3 ovarian
MDA-MB-231 breast = test system: MDA-MB-231 breast
EKVX NSCLC = test system: EKVX NSCLC
IGROV1 ovarian = test system: IGROV1 ovarian
NCI-H522 lung = test system: NCI-H522 lung
MCF7 breast = test system: MCF7 breast
CAKI-1 renal = test system: CAKI-1 renal
TK-10 renal = test system: TK-10 renal
OVCAR-5 ovarian = test system: OVCAR-5 ovarian
HOP-92 NSCLC = test system: HOP-92 NSCLC
A498 renal = test system: A498 renal
HT29 colon = test system: HT29 colon
SW-620 colon = test system: SW-620 colon
SF-268 CNS = test system: SF-268 CNS
SNB-75 CNS = test system: SNB-75 CNS
A549 NSCLC = test system: A549 NSCLC
LOX IMVI melanoma = test system: LOX IMVI melanoma
UO-31 renal = test system: UO-31 renal
NCI/ADR-RES ovarian = test system: NCI/ADR-RES ovarian
SNB-19 CNS = test system: SNB-19 CNS
UACC-62 melanoma = test system: UACC-62 melanoma
MALME-3M melanoma = test system: MALME-3M melanoma
HCC-2998 colon = test system: HCC-2998 colon
UACC-257 melanoma = test system: UACC-257 melanoma
CCRF-CEM leukemia = test system: CCRF-CEM leukemia
SK-MEL-2 melanoma = test system: SK-MEL-2 melanoma

For `COC(=O)C1(NC(=O)C(CC(=O)OCc2ccccc2)NC(=O)OCc2ccccc2)CCCCCCC1` (centres undefined), the TGI (SK-MEL-5 melanoma) was 29.4 µM, the TGI (HL-60(TB) leukemia) was 51.9 µM and the TGI (SF-539 CNS) was > 100 µM. The TGI (KM12 colon) was > 100 µM, the TGI (HS 578T breast) was > 100 µM and the TGI (NCI-H23 lung) was > 100 µM. The TGI (SK-MEL-28 melanoma) was > 100 µM, the TGI (K-562 leukemia) was > 100 µM and the TGI (MOLT-4 leukemia) was > 100 µM. For the same compound, the TGI (COLO 205 colon) was 82.7 µM, the TGI (SN12C renal) was > 100 µM and the TGI (HCT-15 colon) was > 100 µM. For the same compound, the TGI (OVCAR-8 ovarian) was > 100 µM, the TGI (T-47D breast) was 94.2 µM and the TGI (BT-549 breast) was > 100 µM. The TGI (U251 CNS) was > 100 µM, the TGI (SF-295 CNS) was > 100 µM and the TGI (OVCAR-4 ovarian) was > 100 µM. For the same compound, the TGI (ACHN renal) was > 100 µM, the TGI (PC-3 prostate) was > 100 µM and the TGI (MDA-MB-435) was > 100 µM. The TGI (MDA-N) was > 100 µM, the TGI (M14 melanoma) was > 100 µM and the TGI (RPMI-8226 leukemia) was 39.2 µM. The TGI (SR leukemia) was > 100 µM, the TGI (NCI-H226 lung) was 90.9 µM and the TGI (NCI-H460 lung) was > 100 µM. The TGI (786-0 renal) was > 100 µM, the TGI (RXF 393 renal) was > 100 µM and the TGI (OVCAR-3 ovarian) was > 100 µM. For the same compound, the TGI (HOP-62 NSCLC) was > 100 µM, the TGI (HCT-116 colon) was > 100 µM and the TGI (DU-145 prostate) was > 100 µM. The TGI (SK-OV-3 ovarian) was > 100 µM, the TGI (MDA-MB-231 breast) was > 100 µM and the TGI (EKVX NSCLC) was > 100 µM. The TGI (IGROV1 ovarian) was > 100 µM, the TGI (NCI-H522 lung) was > 100 µM and the TGI (MCF7 breast) was > 100 µM. The TGI (CAKI-1 renal) was > 100 µM, the TGI (TK-10 renal) was > 100 µM and the TGI (OVCAR-5 ovarian) was > 100 µM. For the same compound, the TGI (HOP-92 NSCLC) was > 100 µM, the TGI (A498 renal) was 67.7 µM and the TGI (HT29 colon) was > 100 µM. The TGI (SW-620 colon) was > 100 µM, the TGI (SF-268 CNS) was > 100 µM and the TGI (SNB-75 CNS) was > 100 µM. The TGI (A549 NSCLC) was > 100 µM, the TGI (LOX IMVI melanoma) was > 100 µM and the TGI (UO-31 renal) was > 100 µM. The TGI (NCI/ADR-RES ovarian) was > 100 µM, the TGI (SNB-19 CNS) was > 100 µM and the TGI (UACC-62 melanoma) was 63.2 µM.
In the case of `O=C1NN=C2C=C(c3ccc(Cl)cc3)CC(c3cccc(Br)c3)C12` (centres undefined), the TGI (SK-MEL-5 melanoma) is reported as > 100 µM, the TGI (MALME-3M melanoma) is reported as > 100 µM and the TGI (HL-60(TB) leukemia) is reported as > 100 µM. For the same compound, the TGI (SF-539 CNS) was > 100 µM, the TGI (KM12 colon) was > 100 µM and the TGI (HS 578T breast) was 68.1 µM. The TGI (NCI-H23 lung) was > 100 µM, the TGI (K-562 leukemia) was > 100 µM and the TGI (HCC-2998 colon) was > 100 µM. The TGI (MOLT-4 leukemia) was > 100 µM, the TGI (COLO 205 colon) was > 100 µM and the TGI (SN12C renal) was > 100 µM. The TGI (UACC-257 melanoma) was 67 µM, the TGI (HCT-15 colon) was 61.7 µM and the TGI (OVCAR-8 ovarian) was > 100 µM. For the same compound, the TGI (T-47D breast) was > 100 µM, the TGI (BT-549 breast) was > 100 µM and the TGI (U251 CNS) was > 100 µM. For the same compound, the TGI (SF-295 CNS) was > 100 µM, the TGI (OVCAR-4 ovarian) was > 100 µM and the TGI (ACHN renal) was > 100 µM. For the same compound, the TGI (PC-3 prostate) was > 100 µM, the TGI (MDA-MB-435) was > 100 µM and the TGI (MDA-N) was > 100 µM. The TGI (M14 melanoma) was > 100 µM, the TGI (RPMI-8226 leukemia) was > 100 µM and the TGI (SR leukemia) was > 100 µM. The TGI (NCI-H226 lung) was > 100 µM, the TGI (NCI-H460 lung) was > 100 µM and the TGI (786-0 renal) was > 100 µM. For the same compound, the TGI (RXF 393 renal) was > 100 µM, the TGI (OVCAR-3 ovarian) was > 100 µM and the TGI (HOP-62 NSCLC) was > 100 µM. For the same compound, the TGI (HCT-116 colon) was > 100 µM, the TGI (DU-145 prostate) was > 100 µM and the TGI (SK-OV-3 ovarian) was > 100 µM. The TGI (MDA-MB-231 breast) was > 100 µM, the TGI (EKVX NSCLC) was > 100 µM and the TGI (IGROV1 ovarian) was > 100 µM. For the same compound, the TGI (CCRF-CEM leukemia) was 56.5 µM, the TGI (NCI-H522 lung) was > 100 µM and the TGI (MCF7 breast) was > 100 µM. For the same compound, the TGI (CAKI-1 renal) was > 100 µM, the TGI (TK-10 renal) was > 100 µM and the TGI (OVCAR-5 ovarian) was > 100 µM. The TGI (HOP-92 NSCLC) was 31.3 µM, the TGI (HT29 colon) was > 100 µM and the TGI (SW-620 colon) was > 100 µM. For the same compound, the TGI (SF-268 CNS) was > 100 µM, the TGI (SNB-75 CNS) was > 100 µM and the TGI (SK-MEL-2 melanoma) was > 100 µM. For the same compound, the TGI (A549 NSCLC) was > 100 µM, the TGI (LOX IMVI melanoma) was > 100 µM and the TGI (UO-31 renal) was > 100 µM. For the same compound, the TGI (NCI/ADR-RES ovarian) was > 100 µM, the TGI (SNB-19 CNS) was 57.7 µM and the TGI (UACC-62 melanoma) was > 100 µM.
`C[n+]1cn(C2=C([O-])c3ccccc3C(=O)/C2=N\S(=O)(=O)c2ccccc2)c2ccccc21` was tested, and the TGI (SK-MEL-5 melanoma) was > 100 µM, the TGI (MALME-3M melanoma) was 5.88 µM and the TGI (HL-60(TB) leukemia) was 86.1 µM. The TGI (SF-539 CNS) was > 100 µM, the TGI (KM12 colon) was > 100 µM and the TGI (HS 578T breast) was > 100 µM. For the same compound, the TGI (NCI-H23 lung) was 34.7 µM, the TGI (SK-MEL-28 melanoma) was > 100 µM and the TGI (K-562 leukemia) was > 100 µM. The TGI (HCC-2998 colon) was 46.7 µM, the TGI (MOLT-4 leukemia) was > 100 µM and the TGI (COLO 205 colon) was 26.1 µM. For the same compound, the TGI (SN12C renal) was > 100 µM, the TGI (UACC-257 melanoma) was 76.6 µM and the TGI (HCT-15 colon) was > 100 µM. The TGI (OVCAR-8 ovarian) was 77.4 µM, the TGI (T-47D breast) was > 100 µM and the TGI (BT-549 breast) was 86.1 µM. The TGI (U251 CNS) was 50.7 µM, the TGI (SF-295 CNS) was > 100 µM and the TGI (OVCAR-4 ovarian) was 37.8 µM. For the same compound, the TGI (ACHN renal) was > 100 µM, the TGI (PC-3 prostate) was > 100 µM and the TGI (MDA-MB-435) was 6.34 µM. For the same compound, the TGI (MDA-N) was 26.6 µM, the TGI (M14 melanoma) was 48.3 µM and the TGI (RPMI-8226 leukemia) was > 100 µM. The TGI (SR leukemia) was > 100 µM, the TGI (NCI-H226 lung) was > 100 µM and the TGI (NCI-H460 lung) was 84.5 µM. For the same compound, the TGI (786-0 renal) was > 100 µM, the TGI (RXF 393 renal) was 85.1 µM and the TGI (OVCAR-3 ovarian) was 44.9 µM. The TGI (HOP-62 NSCLC) was > 100 µM, the TGI (HCT-116 colon) was > 100 µM and the TGI (DU-145 prostate) was > 100 µM. For the same compound, the TGI (SK-OV-3 ovarian) was > 100 µM, the TGI (MDA-MB-231 breast) was > 100 µM and the TGI (EKVX NSCLC) was > 100 µM. The TGI (IGROV1 ovarian) was 87.3 µM, the TGI (CCRF-CEM leukemia) was > 100 µM and the TGI (NCI-H522 lung) was 26.8 µM. The TGI (MCF7 breast) was > 100 µM, the TGI (CAKI-1 renal) was > 100 µM and the TGI (TK-10 renal) was 70.5 µM. For the same compound, the TGI (OVCAR-5 ovarian) was > 100 µM, the TGI (HOP-92 NSCLC) was > 100 µM and the TGI (HT29 colon) was > 100 µM. For the same compound, the TGI (SW-620 colon) was > 100 µM, the TGI (SF-268 CNS) was > 100 µM and the TGI (SNB-75 CNS) was > 100 µM. For the same compound, the TGI (SK-MEL-2 melanoma) was 44.1 µM, the TGI (A549 NSCLC) was > 100 µM and the TGI (LOX IMVI melanoma) was 76.4 µM. For the same compound, the TGI (UO-31 renal) was > 100 µM, the TGI (NCI/ADR-RES ovarian) was > 100 µM and the TGI (SNB-19 CNS) was 78.5 µM. The TGI (UACC-62 melanoma) was 45.6 µM.
